According to paper PMC3408453, “A Foldamer-Dendrimer Conjugate Neutralizes Synaptotoxic β-Amyloid Oligomers” (PLoS ONE, 2012):

Tests used:
[1] = target: T1, oligomeric Aβ (Homo sapiens, UniProt P05067); test: ThT binding experiment on oligomeric Aβ; conditions: oligomeric Aβ + ligand 1∶1, up to 24 h
T1 construct: a depsipeptide derivative of Aβ(1–42) was utilized; made in house; host or cells: chemical peptide synthesis (no expression host)
Excerpt: The data on 7 were in agreement with its largely helical structure, also found via NMR. […] This was in accord with the NMR results obtained for the recognition segment 1. The secondary structure was probed also with ThT binding experiments (Figure 9B). Pure Aβ oligomers bound ThT at a certain level. This was in accord with the staining with antibody OC; both are capable of recognizing the fibrillar (or protofibrillar) oligomers. […] The latter process is similar to affinity precipitation.
(A) Observed ellipticities in ECD for 36 μM Aβ oligomer (thick black), 9 μM 7 (thin black), and 36 μM Aβ +9 μM 7 (thick dashed). The hypothetical sum of the ECD curves of the pure samples (thin dashed). (B) ThT binding experiment carried out on 36 µM oligomeric Aβ (white bars) and on 36 µM oligomeric Aβ +7 1∶1 mixtures. The relative fluorescence values were monitored up to 24 h.
ThT (Sigma-Aldrich) was dissolved in 50 mM NaH2PO4/Na2HPO4 buffer (pH = 7.0) to a final concentration of 25 μM. […] Two identical 50 μM Aβ oligomer samples were prepared and one of them was mixed with 7 to a final concentration of 50 μM, and the ThT signal intensity was monitored up to further 24 h. […] ThT fluorescence was measured on a plate reader at […] and λem = 480 nm. Data mean values and S.D. were calculated from three parallel measurements.

[2] = system: LTP in mouse hippocampal slices impaired by Aβ(1–42) oligomers; test: Ex vivo hippocampal slice LTP electrophysiology; type: cell-based; conditions: mean ±SEM
Excerpt: We investigated whether 7 could protect against the synaptic plasticity damage caused by Aβ(1–42) oligomers by using a hippocampus slice LTP model. LTP, a correlate of learning and memory has been repeatedly shown to be impaired by Aβ(1–42) oligomers. As negative control, substance 11 was applied. The experimenters were blind to the compounds tested.
These observations indicate the significant protective effect of 7 (Figure 12D). To test the effects of valency, LTP experiments were repeated with 8 under the same conditions.
Via standard procedures, 350-µm-thick transverse hippocampal slices were prepared from the brain of 7-months-old mice (CD1, Animal Breeding Facility, University of Szeged) with a McIlwain tissue chopper (Campden Instruments, Loughborough, UK). Slices were incubated in standard artificial cerebrospinal fluid (ACSF) at ambient temperature for 60 min, during constant gassing with 95% O2–5% CO2. The ACSF contained (mM): NaCl, 130; KCl, 3.5; CaCl2, 2; MgCl2, 2; NaH2PO4, 0.96; NaHCO3, 24; and D-glucose, 10 (pH 7.4). Individual slices were transferred to a 3D-MEA chip with 60 tip-shaped and 60-μm-high electrodes spaced at 100 μm (Ayanda Biosystems, S.A., Lausanne, Switzerland). The slice was continuously perfused with oxygenated ACSF (1.5 ml min^−1 at 34 °C) containing 720 nM Aβ(1–42) oligomers and/or 950 nM ligand throughout the recording session. Data were recorded with a standard, commercially available MEA setup (Multi Channel Systems MCS GmbH, Reutlingen, Germany). The Schaffer-collateral was stimulated by injecting a biphasic current waveform (−100/+100 μs) through one selected electrode at 0.033 Hz. Care was taken to choose the stimulating electrode in the same region from one slice to the other. The peak-to-peak amplitudes of fEPSPs at the stratum pyramidale and stratum radiatum of CA1 were analyzed. After a 30-min incubation period, the threshold and the maximum of stimulation intensity for evoke responses was determined. To evoke responses, 30% of the maximal stimulation intensity was used. LTP was induced by applying a theta-burst stimulation (TBS) pattern at the maximal stimulation intensity. The TBS comprised four trains administered at 20-s intervals with 10 bursts given at 5 Hz per train and 4 pulses at 100 Hz per burst. Statistical analysis was carried out by using two-tailed Student's t-test. For representative raw data see Figure S12.

N=C(N)NCCC[C@@H](CC(=O)N[C@H]1CCCC[C@@H]1C(=O)N[C@H]1CCCC[C@@H]1C(=O)N[C@@H](CC(=O)O)CC(=O)N[C@H]1CCCC[C@@H]1C(=O)NCC(=O)NCC(=O)N[C@@H](CSC1CC(=O)N(CCC(=O)NCCNC(=O)CCN(CCC(=O)NCCNC(=O)CCN2C(=O)CC(SC[C@H](NC(=O)CNC(=O)CNC(=O)[C@H]3CCCC[C@@H]3NC(=O)C[C@H](CC(=O)O)NC(=O)[C@H]3CCCC[C@@H]3NC(=O)[C@H]3CCCC[C@@H]3NC(=O)C[C@H](CCCNC(=N)N)NC(=O)[C@H]3CCCC[C@@H]3N)C(N)=O)C2=O)CCN(CCC(=O)NCCNC(=O)CCN2C(=O)CC(SC[C@H](NC(=O)CNC(=O)CNC(=O)[C@H]3CCCC[C@@H]3NC(=O)C[C@H](CC(=O)O)NC(=O)[C@H]3CCCC[C@@H]3NC(=O)[C@H]3CCCC[C@@H]3NC(=O)C[C@H](CCCNC(=N)N)NC(=O)[C@H]3CCCC[C@@H]3N)C(N)=O)C2=O)CCC(=O)NCCNC(=O)CCN2C(=O)CC(SC[C@H](NC(=O)CNC(=O)CNC(=O)[C@H]3CCCC[C@@H]3NC(=O)C[C@H](CC(=O)O)NC(=O)[C@H]3CCCC[C@@H]3NC(=O)[C@H]3CCCC[C@@H]3NC(=O)C[C@H](CCCNC(=N)N)NC(=O)[C@H]3CCCC[C@@H]3N)C(N)=O)C2=O)C1=O)C(N)=O)NC(=O)[C@H]1CCCC[C@@H]1N (stereo partly drawn) [Compound 7]
Effect on ThT binding of Aβ oligomers [1]: no significant effect on the ThT binding | LTP (potentiation) with Aβ(1–42) oligomers and ligand together ([2]; 720 nM Aβ(1–42) oligomers + 950 nM ligand, 180 min after LTP induction): 195±5% | LTP (potentiation) with ligand alone ([2]; 950 nM ligand, no Aβ oligomers): 184±16%
